# Patent publication US20260256775A1, “METHOD FOR TREATING MENTAL DISEASES” (SHANGHAI RAISING PHARMACEUTICAL CO., LTD., priority 2022, published 2026)
# How the values were obtained:
# [1] = system: Chronic Unpredictable Mild Stress (CUMS) Depressive Rats; test: Elevated plus maze (EPM) test in CUMS model rats; conditions: 9th week of CUMS, 5-minute EPM, trazodone 10 mg/kg/day ig, x ± SD
# [2] = system: Chronic Unpredictable Mild Stress (CUMS) Depressive Rats; test: Forced swimming test (FST) in CUMS model rats; conditions: 8th week of CUMS, 6-minute forced swimming, trazodone 10 mg/kg/day ig, x ± SD
# [3] = system: Chronic Unpredictable Mild Stress (CUMS) Depressive Rats; test: Sucrose preference test (SPT) in CUMS model rats; conditions: trazodone 10 mg/kg/day ig, x ± SD; for SPT After 2 Weeks of Treatment (%): 5th week of CUMS; for SPT After 4 Weeks of Treatment (%): 7th week of CUMS
structure (smiles),measurement,setting,value
O=c1n(CCCN2CCN(c3cccc(Cl)c3)CC2)nc2ccccn12 [Trazodone],Time Spent Exploring the Open Arms in the 6th Week of Treatment (s),[1]; n=8,4.90 ± 2.06 ^ s
same,Time Spent Exploring the Open Arms in the 6th Week of Treatment (s),"[1]; n=8, listed as trazodone",no significant change
same,Immobility Time in FST After 5 Weeks of Treatment (s),[2]; n=8,82.28 ± 21.64 ^ s
same,Immobility Time in FST After 5 Weeks of Treatment (s),"[2]; n=8, listed as trazodone",reduced
same,SPT After 2 Weeks of Treatment (%),[3]; n=8,74.00 ± 11.22%
same,SPT After 2 Weeks of Treatment (%),"[3]; n=8, listed as trazodone",no significant difference
same,SPT After 4 Weeks of Treatment (%),[3]; n=8,84.55 ± 16.77 ^ %
same,SPT After 4 Weeks of Treatment (%),"[3]; n=8, listed as trazodone",significantly increased
